Results taken from patent US7763626B2, “Compositions and method for enhancing the therapeutic activity of opiods in treatment of pain” (Trustees of Dartmouth College, priority 2004, dated 2010).

Key:
Type in all cases: in vivo, rat
Male Sprague-Dawley rats = test: L5 spinal nerve transection model, mechanical allodynia
Protocol: Experiments were performed to determine how propentofylline-induced suppression of glial activation contribute to reduced behavioral hypersensitivity after nerve injury. In a preventative paradigm, 10 μg of propentofylline (Sigma) to male Sprague-Dawley rats in 40 μl of sterile saline, or saline vehicle alone was administered intrathecally (i.t.) by lumbar puncture at the L4/5 level under brief halothane anesthesia (n=6-8/group). Treatment began one hour prior to L5 spinal nerve transection and continued daily in the evening until day 4 or 12 post-transection. Rats received either an L5 spinal nerve transection or sham surgery on day 0. The development of mechanical allodynia was monitored as described above in the morning at approximately 15 hours post-propentofylline or saline injection. […]
Mechanical sensitivity was measured as the frequency of foot withdrawals elicited by a defined mechanical stimulus. […]
In blinded testing, rats were subjected to sequential series of 10 tactile stimulations to the dorsal surface of the ipsilateral hindpaw using […] von Frey filaments (Stoelting Co., WoodDale, Ill.) sequentially. The number of foot withdrawals to this normally non-noxious stimulus determined mechanical allodynia. Mechanical sensitivity was assessed by recording the total number of responses elicited during three successive trials separated by at least 10 minutes. […]

IL-6 protein = test: Cytokine protein estimation by ELISA at L5 spinal cord; conditions: propentofylline 10 micrograms intrathecally for 5 days during induction of morphine tolerance
Protocol: (§1) Quantitative determination of IL-1β, TNF-α and IL-6 protein was performed on the L5 spinal cord of the rats. […] Briefly, weighed sections of L5 spinal cord were homogenized in a homogenization buffer consisting of a protease inhibitor using the a Power Gen 125 tissue tearer (Fisher Scientific, Suwanee, Ga.). Samples were spun at 20,000×g for 30 minutes at 4° C. Supernatant was aliquoted and stored at −80° C. for future protein quantification. IL-1β and TNF-α (R&D Systems, Minneapolis, Minn.) and IL-6 (Biosource, Camarillo, Calif.) protein concentrations were determined utilizing the quantitative sandwich enzyme immunoassay.

IL-1β protein = test: as above; conditions: propentofylline 10 micrograms intrathecally for 5 days during induction of morphine tolerance
Protocol: as §1

TNF-α protein = test: as above; conditions: propentofylline 10 micrograms intrathecally for 5 days during induction of morphine tolerance
Protocol: as §1

GLT-1 mRNA = test: Real time RT-PCR of ipsilateral lumbar spinal cord after L5 spinal nerve transection; conditions: daily intrathecal propentofylline 10 μg
Protocol: (§2) Experiments were performed to determine how propentofylline-induced suppression of glial activation contribute to reduced behavioral hypersensitivity after nerve injury. In a preventative paradigm, 10 μg of propentofylline (Sigma) to male Sprague-Dawley rats in 40 μl of sterile saline, or saline vehicle alone was administered intrathecally (i.t.) by lumbar puncture at the L4/5 level under brief halothane anesthesia (n=6-8/group). Treatment began one hour prior to L5 spinal nerve transection and continued daily in the evening until day 4 or 12 post-transection. Rats received either an L5 spinal nerve transection or sham surgery on day 0. The development of mechanical allodynia was monitored as described above in the morning at approximately 15 hours post-propentofylline or saline injection. Rats were euthanized on day 4 or 12 post-transection and tissue was further processed by real time RT-PCR, Western blot, or immunohistochemistry for determination of levels and rate of synthesis of the glutamate transporters GLT-1 and GLAST.
(§3) Tissue was collected from 4-5 rats/group on postoperative days 4 or 12. In order to obtain both mRNA and protein from the same tissue sample, the L5 region of the spinal cord (ipsilateral to the injury), was isolated and placed in PBS supplemented with protease inhibitor cocktail (1:1000, Sigma, St. Louis, Mo.) and RNase inhibitor (0.75 U/μL Ambion, Austin, Tex.). […]
(§4) Real time RT-PCR reactions were carried out in a total reaction volume of 25 uL containing a final concentration of 1.5 U Platinum Taq DNA polymerase (Invitrogen); 20 mM Tris HCl (pH 8.4); 50 mM KCl; 3 mM MgCl2; 200 uM dGTP, dCTP, and dATP; 400 uM dUTP and 1 U of UDG (uracyl DNA glycosylase); 900 nM of forward and reverse primers; 300 nM Taqman probe; and 5 uL of a 10-fold dilution of cDNA (50 ng) from the RT step. […] The iCycler Multicolor Real-Time PCR detection system (Bio-Rad) was used to quantify PCR product. The fluorescence and threshold values obtained were used to compare the relative amount of target mRNA in experimental groups to those of controls (Livak and Schmittgen 2001). […]

GLAST mRNA = test: as above; conditions: day 4; compared to L5 spinal nerve transection alone; did not attain statistical significance
Protocol: as §2, §3, §4

## CCCn1cnc2c1c(=O)n(CCCCC(C)=O)c(=O)n2C [propentofylline]
Male Sprague-Dawley rats; 10 μg i.t. daily from one hour prior to transection, 12 g Von Frey filament, all time points, vs L5 saline rats
  development of mechanical allodynia after L5 spinal nerve transection: robustly inhibited
Male Sprague-Dawley rats; 10 μg i.t. daily, day 5, 7, 9 and 12
  mechanical allodynia after L5 spinal nerve transection compared with normal group: no longer discernable from the normal group
IL-6 protein
  morphine-induced IL-6 protein levels: significantly attenuated
IL-1β protein
  morphine-induced IL-1β protein levels: significantly attenuated
TNF-α protein
  morphine-induced TNF-α protein levels: significantly attenuated
GLT-1 mRNA; day 4 post-transection, vs sham-operated and L5 nerve transected rats
  GLT-1 mRNA level: significantly increased
GLT-1 mRNA; day 12 post-transection, vs L5 nerve transected rats
  GLT-1 mRNA level: significantly increased
GLAST mRNA
  GLAST mRNA level: slight decrease
